Assay results published in patent US20140228293A1, “PARATHYROID HORMONE ANALOGS, COMPOSITIONS AND USES THEREOF” (THE GENERAL HOSPITAL CORPORATION, priority 2011, published 2014).
Read-outs that look alike come from different tables or passages of the source.

Assay: Stability study by HPLC-MS under ambient conditions
Format: physicochemical
From the text: High performance liquid chromatography-mass spectroscopy (HPLC-MS) was used to monitor the degradation of four synthetic compounds over a period of time.

[1] = room temperature, air, water solution, neutral pH, HPLC-MS

degradation after 7 days (estimated based on UV signal)	Substance	degradation after 7 days (estimated based on UV signal) [1]
	[Nle^8,18]hPTH(1-37) [[Nle^8,11]hPTH(1-37)]	about 70%
less than 10%	[Nle^8,18]hPTH(1-84) [[Nle^8,11]hPTH(1-84)]	
	hPTH(1-37) (SVSEIQLMHNLGKHLNSMERVEWLRKKLQDVHNFVAL)	about 70%
